Measurements taken from patent publication US20230020329A1, “Annelated 9-hydroxy-1,8-dioxo-1,3,4,8-tetrahydro-2H-pyrido[1,2-a]pyrazine-7-carboxamides as HIV integrase inhibitors, methods of preparation and application thereof” (priority 2019, published 2023).
Converted amounts (≈) assume the structure as drawn. Read-outs that look alike come from different tables or passages of the source. Each block holds one compound with its values, some of them ahead of it.

What was measured:
[1] = Pharmacokinetics in rat plasma, IV and oral; assay type: in vivo, male Sprague-Dawley rats; settings: for Cmax: read-out: Cmax; for Tmax: read-out: Tmax
Protocol: The research was carried out on male Sprague-Dawley rats obtained from Charles River Laboratories (Germany). […] The age of the animals at the time of administration was 8-10 weeks. The animals were pre-catheterized so that all blood samples during the study of each substance could be taken from the same animals. Each substance was tested in 3 animals at each route of administration. The solution of test substances with a concentration of 0.2 mg/ml in 10% DMSO/10% Solutol/80% 0.05M N-methylglucamine was administered to rats intravenously in the tail vein at a dose of 1 mg/kg. Blood samples were collected at 5, 15, 30 min, 1, 2, 4, 8, and 24 hours after administration. Intragastric administration involved gavage using a solution with a concentration of 0.5 mg/ml in 0.5% methylcellulose at a dose of 5 mg/kg. Blood samples were collected at 15, 30 min, 1, 2, 4, 8, and 24 hours after administration. Blood (0.2 ml) was collected in polypropylene tubes containing 20 μl of 5% NaEDTA. Blood plasma was separated by centrifugation at 1500×g for 10 min and stored until testing at a temperature of −80° C. A pure acetonitrile-water (1:1) mixture (5 μl) was added to 45 μl of test samples. The samples were vortexed thoroughly for 10 seconds. Tolbutamide (100 μl) chilled to +4° C. (200 ng/ml in MeCN) was added to the samples and the mixture was vortexed. The samples were precipitated on ice at +4° C. for 15 minutes and then centrifuged at 2700 g for 10 min at +4° C. Supernatants (100 μl each) were transferred to a blank plate for HPLC/MS/MS analysis. The HPLC/MS/MS analysis was performed using an Agilent 1290 Infinity system coupled to an AB Sciex QTrap 6500 mass spectrometer. Pharmacokinetic analysis of plasma concentration vs time data was performed by a model-independent method using the Phoenix™ WinNonlin® 6.3 software (Pharsight Corp.). […]

HIV [2] = settings: depending on the method of analysis; read-out: Inhibitory activity EC50 (literature); cited from earlier work
[3] = Thermodynamic (shake-flask) solubility; assay type: physicochemical; settings: for solubility at 24 h: thermodynamic from solid
Protocol: The test compound of general formula 1 or 2 (2 mg) was weighed into a glass vial. The pION universal buffer (0.5 ml) with pH 7.4 or deionized water was added to appropriate vials. The vials were tightly closed with a lid, placed on a rotating shaker, and incubated for 24 hours to balance the solution and the solid phase at the saturation point. Each resulting solution (200 μl) was taken (in duplicate) from the vials, placed in a 96-well MultiScreen Solubility Filter Plate (Millipore), and filtered using vacuum ([…]) into a polypropylene plate with a U-shaped bottom. If necessary, the filtrates were diluted with an appropriate buffer (water). Then, 120 μl of the filtarate (or a diluted filtrate) was transferred to a 96-well plate with a UV-transparent bottom and 60 μl/well of acetonitrile and 20 μl/well of DMSO were added and thoroughly mixed with a multichannel pipette (acetonitrile and DMSO were added to obtain a required composition of calibration standards, as described below). The optical density of the resulting solutions was measured on a multifunction Infinite 200 PRO plate reader in the wavelength range from 240 nm to 400 nm in steps of 10 nm. The value of ODλ for solutions was assessed at a wavelength chosen for plotting a calibration curve.
The concentration of a substance in the solution after the solubility test was evaluated using a calibration curve. A stock solution in DMSO with a concentration of 2 mg/ml was prepared from a separate sample. […] The range of final concentrations of the calibration curve was 0.2; 0.1; 0.05; 0.025; 0.0125; 0.00625, and 0 mg/ml. Calibration solutions were prepared in a 96-well UV plate as follows: 20 μl of a 10-fold stock solution in DMSO, 60 μl of acetonitrile, and 120 μl of the appropriate buffer were added to the well and stirred. The optical density of the resulting solutions was measured on a multifunction Infinite 200 PRO plate reader in the wavelength range from 240 nm to 400 nm with a step of 10 nm. The optimal wavelength typically corresponding to the absorption maximum was chosen, and a linear dependence of OD at a given wavelength on the concentration of the compound was obtained.
The concentration of the compound in the filtrate after the solubility test was calculated according to the formula:
shake-flask solubility=(ODλfiltrate−ODλblank)/(slope×1.67×filtrate dilution)
wherein slope means the slope of the calibration curve; 1.67 is the filtrate acetonitrile+DMSO dilution ratio; filtrate dilution is an additional dilution of the filtrate, if applicable.

HIV [4] = assay: EC50 reported in WO 2014/100323; assay type: cell-based; settings: A4 vs BIC; A5 vs A6
Description: Specifically, only two inhibitors—A4 and A5—are known to comprise a pyridin-2-ylmethyl moiety instead of a benzyl moiety [WO 2014/100323].

HIV [5] = settings: read-out: EC50 in WO 2014/100323; cited from earlier work
[6] = male, Sprague-Dawley, rat plasma, IV 1 mg/kg
[7] = male, Sprague-Dawley, rat plasma, oral 5 mg/kg

bioavailability ([1]; male, Sprague-Dawley, plasma, rat, oral 5 mg/kg vs IV 1 mg/kg, F=(AUClast PO/5·AUClast IV)·100): 8.8%
AUC(0-inf) [1, 6]: 232 µg·h/mL
AUC(0-t) [1, 6]: 141 µg·h/mL
MRT last [1, 6]: 9.19 h
half-life [1, 6]: 18.3 h
Cmax [1, 6]: 17000 ng/mL
Tmax [1, 6]: 0.08 h
AUC(0-inf) [1, 7]: 158 µg·h/mL
AUC(0-t) [1, 7]: 62.3 µg·h/mL
MRT last [1, 7]: 8.05 h
half-life [1, 7]: 19.1 h
concentration at 8 h ([1]; male, Sprague-Dawley, rat plasma, oral 5 mg/kg, 8 h, read-out: C8 h): 4340 ng/mL
concentration at 24 h ([1]; male, Sprague-Dawley, rat plasma, oral 5 mg/kg, 24 h, read-out: C24 h): 1840 ng/mL
Cmax [1, 7]: 5210 ng/mL
Tmax [1, 7]: 4.67 h
kel ([1]; rat plasma, IV 1 mg/kg): 0.04 h⁻¹
kel ([1]; rat plasma, oral 5 mg/kg): 0.04 h⁻¹
solubility at 24 h ([3]; aqueous buffer, pION universal buffer pH 7.4, 24 h, read-out: Solubility, pH 7.4, value): 5 µg/mL (≈ 12.3 µM)
Solubility, water, value ([3]; deionized water, 24 h): 8 µg/mL (≈ 19.7 µM)
solubility at 24 h ([3]; deionized water, water, read-out: Solubility in water): 8 µg/mL (≈ 19.7 µM)
SMILES: C[C@H]1CO[C@@H]2Cn3cc(C(=O)NCc4ccc(F)cc4F)c(=O)c(O)c3C(=O)N12 [CAB, Cabotegravir, reference compound]
EC50 (HIV [2]): 0.25 to 3 nM

SMILES: O=C(NCc1ncccc1C(F)(F)F)c1cn2c(c(O)c1=O)C(=O)N1[C@@H]3CC[C@@H](C3)O[C@H]1C2 [Compound A4, (2S, 5R, 13aS)-8-hydroxy-7,9-dioxo-N-{[3-(trifluoromethyl)pyridin-2-yl]methyl}-2,3,4,5,7,9,13,13a-octahydro-2,5-methanpyrido[1′, 2′: 4,5]pyrazino[2,1-b][1,3]oxazepine-10-carboxamide]
Decrease in activity relative to the benzyl analogue (times lower) (HIV [4]): 13.3
EC50 (HIV [5]): 33.3 nM

SMILES: O=C(NCc1c(F)cc(F)cc1F)c1cn2c(c(O)c1=O)C(=O)N1[C@H]3CC[C@H](C3)O[C@@H]1C2 [BIC, Bictegravir]
EC50 (HIV [2]): 1 to 7.5 nM
EC50 (HIV [5]): 2.5 nM

SMILES: O=C(NCc1ncc(F)cc1F)c1cn2c(c(O)c1=O)C(=O)N1[C@H]3CC[C@H](C3)[C@@H]1C2 [Compound A5, (1R, 4S, 12aR)-N-[(3,5-difluoropyridin-2-yl)methyl]-7-hydroxy-6,8-dioxo-1,2,3,4,6,8,12,12a-octahydro-1,4-methanodipyrido [1,2-a: 1′, 2′-d]pyrazine-9-carboxamide]
Decrease in activity relative to the benzyl analogue (times lower) (HIV [4]): almost twofold decrease in activity
EC50 (HIV [5]): 17.8 nM
